The text below walks through data of patent publication US7632952B2, “Benzothiazoles and the use thereof as medicaments” (Aventis Pharma S.A., priority 2004, dated 2009).

The assay concerns the target CDK4/cyclin D1 (Homo sapiens, UniProt P11802). Kind of assay: CDK4/cyclin D1 Flashplate test in 96-well format. The class given is biochemical. The essentials:
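CDK4-HA/cyclin D1-(His)6 complex from coinfected Sf9 cells, 25 nM final, phosphorylating 1.8 μM biotinylated pRb peptide in HEPES pH 7.5 with MgCl2, DTT and [γ-33P]ATP at 30 °C. 33P incorporation captured on streptavidin Flashplates and read by scintillation counting; IC50 from seven-point inhibitor dilutions.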

One may read the IC50 as the midpoint of a concentration-inhibition curve. Low readings indicate inhibition by little substance, high ones a need for much substance.

Counter-ions that a name gives are not always drawn.

CDK4/cyclin D1, sequence (P11802 whole entry): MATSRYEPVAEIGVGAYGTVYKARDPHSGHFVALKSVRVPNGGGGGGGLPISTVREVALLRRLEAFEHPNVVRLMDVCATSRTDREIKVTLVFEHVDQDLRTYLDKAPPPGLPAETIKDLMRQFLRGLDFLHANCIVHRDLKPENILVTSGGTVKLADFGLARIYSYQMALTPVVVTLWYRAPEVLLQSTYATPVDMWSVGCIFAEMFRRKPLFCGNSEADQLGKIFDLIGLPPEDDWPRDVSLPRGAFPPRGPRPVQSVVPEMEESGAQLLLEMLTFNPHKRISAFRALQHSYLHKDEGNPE
CDK4/cyclin D1, sequence (P24385 whole entry partner): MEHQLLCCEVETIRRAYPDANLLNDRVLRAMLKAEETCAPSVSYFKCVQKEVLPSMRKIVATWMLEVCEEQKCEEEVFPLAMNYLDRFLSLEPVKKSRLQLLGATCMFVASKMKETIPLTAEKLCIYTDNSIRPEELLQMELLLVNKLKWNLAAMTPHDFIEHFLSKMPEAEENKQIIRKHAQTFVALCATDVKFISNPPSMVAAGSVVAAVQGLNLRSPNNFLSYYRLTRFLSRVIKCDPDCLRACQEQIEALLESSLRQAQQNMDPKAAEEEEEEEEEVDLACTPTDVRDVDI

Take `CC(C)N(CCNc1ccc(S(=O)(=O)Oc2ccc3nc(NC(=O)C4(N)CCCC4)sc3c2)cc1)C(C)C` [Example 41, 4-(2-diisopropylaminoethylamino)benzenesulfonic acid 2-[(1-aminocyclopentanecarbonyl)amino]benzothiazol-6-yl ester]: the concentration for half-maximal inhibition (IC50) is over 10000 nM.

As to `CC(=O)Nc1nc2ccc(OS(=O)(=O)c3ccc(NCCN(C(C)C)C(C)C)cc3)cc2s1` [Example 43, 4-(2-Diisopropylaminoethylamino)benzenesulfonic acid 2-acetylaminobenzothiazol-6-yl ester], inhibition was half-maximal at 119 nM (IC50).

`CC(C)(CNc1ccc(S(=O)(=O)Oc2ccc3nc(NC(=O)C4CC4)sc3c2)cc1)OP(=O)(O)O` [Example 89, 4-(2-methyl-2-phosphonooxypropylamino)benzene-sulfonic acid 2-(cyclopropanecarbonylamino)benzothiazol-6-yl ester]: the IC50 amounted to 3320 nM.

`CC(C)(O)CNc1ccc(S(=O)(=O)Oc2ccc3nc(NC(=O)C4CC4)sc3c2)cc1` [Example 11, 4-(2-hydroxy-2-methylpropylamino)benzene-sulfonic 2-(cyclopropanecarbonylamino)benzothiazol-6-yl ester]: it took 924 nM to reach half-maximal inhibition (IC50).

Take `O=C(Nc1nc2ccc(OS(=O)(=O)c3ccc(NCCCn4ccnc4)cc3)cc2s1)C1CC1` [Example 9, 4-(3-imidazol-1-ylpropylamino)benzenesulfonic 2-(cyclopropanecarbonylamino)benzothiazol-6-yl ester]: 931 nM corresponded to half-maximal inhibition (IC50).

In turn, `O=C(Nc1nc2ccc(OS(=O)(=O)c3ccc(-c4ccccn4)s3)cc2s1)C1CC1` [Example 85, 5-pyridin-2-ylthiophene-2-sulfonic acid 2-(cyclopropanecarbonylamino)benzothiazol-6-yl ester] showed an IC50 of over 10000 nM.

Consider `CC(C)NCCNc1ccc(S(=O)(=O)Oc2ccc3nc(NC(=O)C4CC4)sc3c2)cc1` [Example 53, 4-(2-isopropylaminoethylamino)benzenesulfonic 2-(cyclopropanecarbonylamino)benzothiazol-6-yl ester hydrochloride], for which the IC50 is 205 nM.

In turn, `CCC(=O)Nc1nc2ccc(OS(=O)(=O)c3ccc(NCCN(C(C)C)C(C)C)cc3)cc2s1` [Example 57, 4-(2-diisopropylaminoethylamino)benzenesulfonic acid 2-propionylaminobenzothiazol-6-yl ester hydrochloride] had a half-inhibitory concentration (IC50) of 125 nM.

`CC(C)C(=O)Nc1nc2ccc(OS(=O)(=O)c3ccc(NCCN(C(C)C)C(C)C)cc3)cc2s1` [Example 55, 4-(2-diisopropylaminoethylamino)benzenesulfonic acid 2-isobutyrylaminobenzothiazol-6-yl ester hydrochloride] registered an IC50 of 221 nM.

Molecule `CNc1ccc(S(=O)(=O)Oc2ccc3nc(NC(=O)C4CC4)sc3c2)cc1` [Example 10, 4-methylaminobenzenesulfonic 2-(cyclopropane-carbonylamino)benzothiazol-6-yl ester] gave a 50% inhibitory concentration (IC50) of 944 nM.

Molecule `CC(C)(O)CNc1ccc(S(=O)(=O)Oc2ccc3nc(NC(=O)CCc4cccnc4)sc3c2)cc1` [Example 63, 4-(2-hydroxy-2-methylpropylamino)benzene-sulfonic acid 2-(3-pyrid-3-ylpropionylamino)benzothiazol-6-yl ester hydro-chloride] had an IC50 of 1390 nM.

In turn, `CC(C)N(CCNc1ccc(S(=O)(=O)Oc2ccc3nc(NC(=O)C4CCCC4)sc3c2)cc1)C(C)C` [Example 45, 4-(2-Diisopropylaminoethylamino)benzenesulfonic acid 2-(cyclo-pentanecarbonylamino)benzothiazol-6-yl ester] gave a half-maximal inhibitory concentration (IC50) of 341 nM.

In the case of `O=C(Nc1nc2ccc(OS(=O)(=O)c3cccs3)cc2s1)C1CC1` [Example 33h, Thiophene-2-sulfonic acid 2-(cyclopro-panecarbonylamino)benzothiazol-6-yl ester], the IC50 worked out at 358 nM.

`CC(C)N(CCNc1ccc(S(=O)(=O)Oc2ccc3nc(NC(=O)C4CCC4)sc3c2)cc1)C(C)C` [Example 60, 4-(2-diisopropylaminoethylamino)benzenesulfonic acid 2-(cyclobutanecarbonylamino)benzothiazol-6-yl ester hydrochloride] yielded a 50% inhibitory concentration (IC50) of 265 nM.

Regarding `CC(C)N(CCNc1ccc(S(=O)(=O)Oc2ccc3nc(NC(=O)C4CC4)sc3c2)cc1)C(C)C` [Example 12, 4-(2-diisopropylaminoethylamino)benzenesulfonic 2-(cyclopropanecarbonylamino)benzothiazol-6-yl ester], the concentration for half-maximal inhibition (IC50) worked out at 205 nM.

For `COCC(=O)Nc1nc2ccc(OS(=O)(=O)c3ccc(NCCN(C(C)C)C(C)C)cc3)cc2s1` [Example 44, 4-(2-Diisopropylaminoethylamino)benzenesulfonic acid 2-(2-methoxyacetylamino)benzothiazol-6-yl ester], the IC50 amounted to 313 nM.

For `CC(=O)Nc1nc2ccc(OS(=O)(=O)c3ccc(NCCNC(C)C)cc3)cc2s1` [Example 65, 4-(2-isopropylaminoethylamino)benzenesulfonic acid 2-acetylaminobenzothiazol-6-yl ester], the half-maximal inhibitory concentration (IC50) is 170 nM.
